Where “and” joins values, the source holds several entries; their conditions need not be identical. Equal entries are not always repeated.
Experiments:
[1] = system: MRSA; assay: Minimal bactericidal concentration (MBC), 99.9% kill; assay type: cell-based, Staphylococcus aureus; settings: Table F
Procedure: (§1) Broth microdilution was performed according to NCCLS guidelines. Microdilution panels were prepared using doubling dilutions of the dimer in ~250 μl plastic, 96-well trays. Inoculum suspension equal to a 0.5 McFarland standard were further diluted and added to the microdilution trays to achieve a final inoculum of 5×10^5 CFU/ml (5×10^4 CFU/well). Colony counts were performed to confirm the final inoculum, as well as its purity. Each strain was also tested in a growth control well containing only MHB for viability.
Various isolates were also tested for minimal bactericidal concentration (MBC) (see Tables D and F).
Subbed 50 μl of ≤5 clear wells

[2] = system: T. glabrata ATCC 90030; assay: In vitro antifungal susceptibility assay adapted from NCCLS (MIC); assay type: cell-based, Torulopsis glabrata; settings: RPMI-1640
Procedure: (§2) Compounds of the invention also display antifungal activities. […] Using C. albicans ATCC® 90028, C. neoformans ATCC® 90112 and T. glabrata ATCC® 90030, the protocol is performed as follows:
(§3) Prepare 0.0128 g DAA in 10 mL dH2 O (or other if H2 O insoluble)=1280 μg/mL (stock solution). Dilute DAA stock solution 1:10 with RPMI-1640: 0.5 mL DAA stock solution+4.5 mL RPMI-1640=128 μg/mL (DAA working solution).
(§4) Inoculate rows A-H, columns 2-12 with 100 μl of RPMI-1640 using Eppendorf repeater pipette. Inoculate rows A-C columns 1 and 2 with 100 μl of 1st antibiotic (i.e. DAA-1) using electronic pipette. Inoculate rows E-G columns 1 and 2 with 100 μl of 2nd antibiotic (i.e. DAA-2) using electronic pipette. […] Plate is now ready for fungal inocula, which involves pipetting 100 μl of the inocula into all wells in rows A-C columns 1-12 and rows E-G columns 1-12. […]
(§5) Five colonies greater than 1 mm in diameter are suspended in a spectrophotometer cuvette containing 5 mL of sterile, 0.85% saline (colonies are obtained from 24 hrs. old Candida and Torulopsis cultures, while Cryptococcus colonies are chosen from 48 hrs. old cultures). Spectrophotometer is set to read % transmission at a wavelength of 530 nm, and is standardized using two cuvettes. […] Fungal inoculum is now prepared and ready to be introduced to microplates. […]

[3] = system: C. neoformans ATCC 90112; assay: as above; assay type: cell-based, Cryptococcus neoformans; settings: RPMI-1640
Procedure: as §2, §3, §4, §5

[4] = system: Vancomycin susceptible Enterococcus (VSE); assay: Broth microdilution (NCCLS guidelines), MIC; assay type: cell-based; settings: Table A
Procedure: (§6) The dimer product of Example 15 was obtained in powder form. A stock solution of 1280 mg/L of the dimer in dimethylsulfoxide (DMSO) was prepared and stored at room temperature in a foil-wrapped screw-capped tube (10 ml). Subsequent dilutions were prepared using cation-adjusted Mueller-Hinton broth (50 mg/L Mg). […] It was resuspended upon mixing each time an aliquot was taken from the solution.
(§7) Approximately 100 varied bacterial isolates were initially collected for screening, along with 9 ATCC organisms. Forty additional strains of Staphylococcus species were subsequently screened. All isolates were identified according to generally accepted lab protocol.
as §1
(§8) Microdilution trays were incubated at 35° C. in ambient air or 5% CO2 as appropriate for 16-20 hours. After incubation, the minimal inhibitory concentration (MIC) was defined as the lowest concentration of the dimer with no evidence of growth. Since 10 or more strains of most organisms were tested; a range of MICs was determined for each organism, as well as the concentration of the dimer that inhibited 50% of the strains (MIC50) and the concentration of the dimer that inhibited 90% of the strains (MIC90).

[5] = system: Enterobacteriaceae; assay: Broth microdilution (NCCLS guidelines), MIC; assay type: cell-based; settings: Table A, 10 strains
Procedure: as §6, §7, §1, §8

[6] = system: ATCC S. epid 14990; assay: Broth microdilution (NCCLS guidelines), MIC; assay type: cell-based; settings: for MICs: in µg/mL
Procedure: as §6, §7, §1, §8

[7] = system: Acinetobacter; assay: Broth microdilution (NCCLS guidelines), MIC; assay type: cell-based; settings: Table A, 5 strains
Procedure: as §6, §7, §1, §8

[8] = system: B. cepacia; assay: Broth microdilution (NCCLS guidelines), MIC; assay type: cell-based; settings: Table A, 5 strains
Procedure: as §6, §7, §1, §8

[9] = system: Vancomycin resistant Enterococcus (VRE); assay: Broth microdilution (NCCLS guidelines), MIC; assay type: cell-based; settings: Table A
Procedure: as §6, §7, §1, §8

Substance: 10,10'-bis(3,6-dimethyl-5,10-dihydro-1,8-diazaanthracen-5-one) and 5,5'-bis(3,6-dimethyl-5,10-dihydro-1,8-diazaanthracen-10-one) [Example 15]
- MBC ([1]; MRSA 2): 16 mg/L
- MBC ([1]; MRSA 4, skipped wells): > 16 mg/L
- MBC ([1]; MRSA 6): 2 mg/L
- MIC [2]: 16 mg/L
- MIC [3]: 16 mg/L
- MIC50 ([4]; 12 strains): > 64 mg/L
- MIC90 ([4]; 12 strains): > 64 mg/L
- MIC ([4]; ATCC VSE 29212): > 64 mg/L
- MIC50 [5]: > 64 mg/L
- MIC90 [5]: > 64 mg/L
- Range of MICs [5]: > 64 mg/L
- MICs ([6]; Table C, ATCC S. epid 14990 (×2), solution 14 days old): 0.25
- MICs ([6]; Table E, ATCC S. epid 14990, fresh solution, * = skipped wells (second value), listed as Dimer): 0.3125 and 0.5
- MIC ([6]; Table F, ATCC S. epid 14990): 0.0312 mg/L
- MIC ([6]; Table G footnote, ATCC 14990 (coag neg staph)): 0.0312 mg/L
- MIC50 [7]: > 64 mg/L
- MIC90 [7]: > 64 mg/L
- Range of MICs [7]: > 64 mg/L
- MIC50 [8]: > 64 mg/L
- MIC90 [8]: > 64 mg/L
- Range of MICs [8]: ≥ 64 mg/L
- MIC50 ([9]; 12 strains): 64 mg/L
- MIC90 ([9]; 12 strains): > 64 mg/L
- Range of MICs ([9]; 12 strains): ≥ 64 mg/L
- MIC ([9]; ATCC VRE 51299): > 64 mg/L
